Source: the METLIN SMRT retention time set (Domingo-Almenara et al. 2019)

Assay: gradient 5% acetonitrile 3 min, to 50% in 2 min, to 85% in 15 min, held 3 min, 100 µL/min
Details: column: Zorbax Extend-C18 2.1 x 50 mm; eluents: water / acetonitrile, 0.1% formic acid
Summary of the method: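 Values are retention times taken from adduct peaks that software picked and an analyst inspected. The pure standards were run as mixtures of ~100 molecules on HPLC linked to a quadrupole time-of-flight mass spectrometer, in positive and negative ionization mode. A Zorbax Extend-C18 column (2.1 × 50 mm, 1.8 μm) was used at 100 μL/min with water and acetonitrile, each including 0.1% formic acid.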

Compound | RP-LC retention time [s]
O=C(CN1c2ccc(F)cc2-c2ccccc2S1(=O)=O)Nc1cccc(F)c1 | 982
COc1ccc(-c2nc3sc(C(=O)N(C)C)c(C)n3c2NC(C)(C)C)cc1 | 742
COc1ccccc1CNC(=O)C1CCN(c2cc(N3CCOCC3)ncn2)CC1 | 619
CN1CCCC1c1nc(C2CN(C(=O)Cn3c(=O)oc4ccccc43)C2)no1 (stereo unspecified) | 582
Cc1ccccc1CNC(=O)C1(C)CCCN(C(=O)Nc2ccc(Cl)cc2)C1 (stereo unspecified) | 995
Cc1cccc(Sc2nccnc2N2CCCC(C(=O)NC3CCCCCC3)C2)c1 (stereo unspecified) | 1230
CC(C)CN1CCN(C(=O)c2cn3cc(Cl)ccc3n2)CC1 | 577
CC(C)C(=O)Nc1ccc(-n2cnc(C(=O)N3CCN(Cc4ccccc4)CC3)c2)nc1 | 608
Cc1sc(C)c(S(=O)(=O)N2CCc3ccccc3C2)c1-c1cc(C(F)(F)F)on1 | 1280
CC1=Nc2ccccc2N=C(NC(=O)Nc2cccc(Cl)c2)C1c1ccc(Cl)cc1 (stereo unspecified) | 1170
CCCn1cc(CCNC(=O)c2cccc(Cl)c2)c2cccnc21 | 812
CC(C)N1C(=O)C(CC(=O)Nc2cccc(OC(F)(F)F)c2)=C2CCCCC21 (stereo unspecified) | 1080
Cc1ccc(CNC(=O)c2cnc(-c3ccc(C)cc3)nc2-c2ccncc2)cc1 | 923
COc1ccc(CNC(=O)CCC2CCN(c3cc(NC4CC4)ncn3)CC2)cc1 | 645
Cc1cccn2c(Nc3ccc4c(c3)OCCO4)c(-c3cccc(Cl)c3)nc12 | 727
Cc1cnc(CC2CCN(C(=O)Nc3ccc4c(c3)OCCO4)C2)n1C1CC1 (stereo unspecified) | 612
Oc1c(C(c2ccc(F)cc2)N2CCN(c3cccc(Cl)c3)CC2)sc2ncnn12 (stereo unspecified) | 852
CCCCCn1c(=O)c2ccccc2n(Cc2nc(-c3ccc(F)c(Cl)c3)no2)c1=O | 1290

Compound | RP-LC retention time [s]
O=S(=O)(c1ccc(F)cc1F)N1CC(COc2ccncc2)C2(CCOCC2)C1 (stereo unspecified) | 613
COCCNCc1ccc(-c2ccc(Br)cc2)o1 | 674
CCOc1cccc(C2C(C(=O)OC(C)C)=C(C)NC3=C2C(=O)C(C(=O)OC)C(C)C3)c1 (stereo unspecified) | 968
O=C(c1ccc2c(c1)OCO2)N1CCC(Nc2ncnc3c2CCC3)C1 (stereo unspecified) | 564
Cc1ccc(CCNC(=O)c2cc3n(n2)CC(C)(C(=O)NC2CCCC2)N(C)C3=O)cc1 (stereo unspecified) | 809
CSc1ccccc1CN1CCC(CNC(=O)C2(c3ccc(F)cc3)CC2)CC1 | 596
CC(C)[C@@H](C(=O)NCCc1c[nH]c2ccc(F)cc12)n1nnc2ccccc2c1=O | 874
O=C(Cc1cccs1)N1CCCC1c1nc(-c2ccc(F)cc2F)no1 (stereo unspecified) | 935
CCc1nc(-c2cccc(-c3noc(CN4C(=O)COc5ccc(Cl)cc54)n3)c2)cs1 | 1240
CCOc1cccc2c1OC1(CCN(C(C)=O)CC1)N1N=C(c3ccc4c(c3)OCO4)CC21 (stereo unspecified) | 826
CCNC(=O)c1ncn2c1C(=O)N(C1CC1)C(C)(C(=O)NCc1ccccc1)C2 (stereo unspecified) | 656
CCc1nc(OCC(=O)Nc2cc(Cl)c(OC)cc2OC)c2ccccc2n1 | 848
COc1ccccc1NC(=O)N1CCC2(CC1)N=C(c1cccc(F)c1)C(=O)N2 | 840
COc1cccc(CNC(=O)N2CCCC2c2cc(C)no2)c1 (stereo unspecified) | 706
Cc1ccc(N2CCN(C(=O)c3cn(-c4cc(N5CCSCC5)ncn4)cn3)CC2)cc1 | 916
O=C(c1sc2ncccc2c1-n1cccc1)N1CCSCC1 | 842
O=C(Cn1nc2c(SC3CCCCC3)nccn2c1=O)NC1CCCCC1 | 987
O=C(CCc1nc(CSc2nnc(-c3ccccc3)o2)no1)Nc1ccccc1F | 870
